PubChem BioAssay (NCI)
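These data come from cells grown in 96-well plates and exposed to compound for 48 hours at five concentrations. At the TGI there is no net growth.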

Experiments:
XF 498 CNS = assay: inhibition of tumour cell growth, NCI panel, 48 h
RXF-631 renal = assay: inhibition of tumour cell growth, NCI panel, 48 h

For `COC(=O)CC1N=C(NC#N)N(CCc2c[nH]c3ccccc23)C1=O` (stereo unspecified), the TGI (XF 498 CNS) was over 100 µM.

In the case of `CC1=CCC(O)C=CC(C)C(O)C(C)C=C(C)C(=O)c2c(O)c(C)cc3c2C(=O)C(N)=C(NC(=O)/C=C\C=C/C=CC(C)C(O)CC1=O)C3=O` (stereo unspecified), the TGI (XF 498 CNS) is reported as over 100 µM.

`CCN(CC)C1CC(O[C@H]2C[C@](O)(C(=O)CO)Cc3c(O)c4c(c(O)c32)C(=O)c2c(OC)cccc2C4=O)OC(C)C1O` (stereo partly specified) showed a TGI (RXF-631 renal) of 11.9 µM and a TGI (XF 498 CNS) of 0.223 µM.

With `O=c1cc(-c2ccc(Oc3ccccc3)cc2)[nH]c2cc3c(cc12)OCO3` the TGI (XF 498 CNS) was over 100 µM.

`Nc1nc([O-])c2c(n1)[n+](C1OC(CO)C(O)C1O)cn2CCO` (stereo unspecified) was tested, and the TGI (RXF-631 renal) was over 100 µM and the TGI (XF 498 CNS) was over 100 µM.

With `CCOC(=O)CC(C)C1(C(=O)OCC)CCCCC1=O` (stereo unspecified) the TGI (RXF-631 renal) was over 100 µM and the TGI (XF 498 CNS) was over 100 µM.

Work on `CN=C(SC)N(C)c1nc(=[N+](C)C)ss1` yielded a TGI (RXF-631 renal) of 16.4 µM and a TGI (XF 498 CNS) of over 100 µM.

With `C=C(C)[C@H]1Cc2c(ccc3c2O[C@@H]2COc4cc(OC)c(OC)cc4[C@@H]2C3=O)O1` the TGI (XF 498 CNS) was 0.302 µM.

For `O=C1c2ccsc2C(=O)c2sc(CO)cc21`, the TGI (XF 498 CNS) was 1.14 µM.

With `CC(=O)O[C@H]1C(=O)[C@@]2(C)C(C(OC(=O)c3ccccc3)[C@]3(O)CC(OC(=O)C(O)C(NC(=O)c4ccc(C(F)(F)F)cc4)c4ccccc4)C(C)=C1C3(C)C)[C@]1(OC(C)=O)CO[C@@H]1C[C@@H]2O` (stereo partly specified) the TGI (XF 498 CNS) was 3.09 µM.

Compound `Cn1c(O)c(C(=O)NC2CCCCC2)c(=O)n(C)c1=S` has a TGI (RXF-631 renal) of 20.1 µM.

In the case of `CCCCCCCCCCCC(=O)OCC(C[As](=O)(O)O)OC(=O)CCCCCCCCCCC` (stereo unspecified), the TGI (XF 498 CNS) is reported as 7.28 µM.
